The IC50 is the concentration that gives 50% inhibition.

We go through two compounds from US20210198269A1, “INHIBITORS OF GLUCOSE TRANSPORTERS (GLUTs)” (LEAD DISCOVERY CENTER GMBH, priority 2018, published 2021).

What all share (type): cell-based
The target of one experiment is T1, GLUT3 (Homo sapiens, UniProt P11169).
T1 construct: host or cells: DLD-1-GLUT1(-/-) cells
T1 sequence (P11169 1-496): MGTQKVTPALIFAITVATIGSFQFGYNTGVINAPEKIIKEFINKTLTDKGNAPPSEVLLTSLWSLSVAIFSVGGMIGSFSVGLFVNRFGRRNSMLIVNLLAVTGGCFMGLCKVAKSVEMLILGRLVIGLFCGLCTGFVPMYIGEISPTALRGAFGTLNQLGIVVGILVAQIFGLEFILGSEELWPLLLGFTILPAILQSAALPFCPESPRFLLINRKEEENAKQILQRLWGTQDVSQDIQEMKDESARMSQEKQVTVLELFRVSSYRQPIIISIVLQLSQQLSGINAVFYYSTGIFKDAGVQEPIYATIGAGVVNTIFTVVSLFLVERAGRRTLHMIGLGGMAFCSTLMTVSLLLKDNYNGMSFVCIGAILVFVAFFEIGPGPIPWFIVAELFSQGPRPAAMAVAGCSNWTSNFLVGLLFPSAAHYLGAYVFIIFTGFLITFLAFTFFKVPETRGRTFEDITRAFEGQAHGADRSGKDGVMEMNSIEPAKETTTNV
Nature of the experiment: GLUT3 transporter activity assay (2-DG uptake) in DLD-1-GLUT1-/- cells. As to conditions: DLD-1-GLUT1-/- cell line; read-out: GLUT3 inhibitory activity (IC50). The procedure, abridged:
(§1)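 DLD1 cells (GLUT1) or DLD-1-GLUT1−/− cells (GLUT3) in glucose-free RPMI with 1% FCS, treated with compound plus 1 mM 2-DG for 30 min. Lysate 2-DG measured by G6PDH/diaphorase-coupled resazurin-to-resorufin fluorescence (ex/em 535/590 nm), blank-subtracted and normalized to DMSO control.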

The target of the next experiment is T2, GLUT1 (Homo sapiens, UniProt P11166).
T2 construct: host or cells: DLD-1 (DLD1) cells
T2 sequence (P11166 1-492): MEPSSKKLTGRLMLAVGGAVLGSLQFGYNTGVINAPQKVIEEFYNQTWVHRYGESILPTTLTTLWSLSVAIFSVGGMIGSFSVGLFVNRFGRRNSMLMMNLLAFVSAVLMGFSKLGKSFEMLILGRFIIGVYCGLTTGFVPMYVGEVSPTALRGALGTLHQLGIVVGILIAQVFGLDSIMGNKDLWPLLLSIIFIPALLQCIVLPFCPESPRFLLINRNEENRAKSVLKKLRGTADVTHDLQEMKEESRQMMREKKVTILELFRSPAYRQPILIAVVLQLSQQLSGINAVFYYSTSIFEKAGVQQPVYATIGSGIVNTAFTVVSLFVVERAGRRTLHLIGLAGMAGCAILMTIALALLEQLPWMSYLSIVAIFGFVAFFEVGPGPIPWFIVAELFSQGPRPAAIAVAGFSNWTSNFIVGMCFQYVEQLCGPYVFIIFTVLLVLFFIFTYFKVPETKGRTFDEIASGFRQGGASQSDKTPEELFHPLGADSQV
Nature of the experiment: GLUT1 transporter activity assay (2-DG uptake) in DLD1 cells. As to conditions: DLD1 cell line; read-out: GLUT1 inhibitory activity (IC50). In a few lines:
as §1

Another experiment deals with T3, GLUT4 (Homo sapiens, UniProt P14672).
T3 sequence (P14672 1-509): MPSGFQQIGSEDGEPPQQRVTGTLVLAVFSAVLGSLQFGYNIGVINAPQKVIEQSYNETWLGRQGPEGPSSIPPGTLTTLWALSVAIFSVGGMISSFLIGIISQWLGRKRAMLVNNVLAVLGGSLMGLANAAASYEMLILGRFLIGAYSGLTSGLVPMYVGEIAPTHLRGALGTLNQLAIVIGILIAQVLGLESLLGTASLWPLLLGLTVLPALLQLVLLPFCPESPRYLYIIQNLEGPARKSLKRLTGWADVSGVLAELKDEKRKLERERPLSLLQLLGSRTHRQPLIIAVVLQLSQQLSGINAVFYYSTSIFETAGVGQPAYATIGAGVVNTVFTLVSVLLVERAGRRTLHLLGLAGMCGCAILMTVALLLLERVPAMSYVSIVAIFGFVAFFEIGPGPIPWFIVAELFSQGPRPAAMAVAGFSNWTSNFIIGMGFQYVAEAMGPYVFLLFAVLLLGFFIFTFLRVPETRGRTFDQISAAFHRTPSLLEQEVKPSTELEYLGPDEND
As to the kind of experiment: GLUT4 transporter activity assay (2-DG uptake) in CHO-hGLUT4 cells. The conditions noted are these: CHO-hGLUT4 cell line; read-out: GLUT4 inhibitory activity (IC50). The procedure, abridged: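 Stable CHOK1 clone overexpressing human GLUT4 (7,000 cells/well), in glucose-free RPMI with 1% FCS, incubated with compound and 1 mM 2-DG for 30 min. After acid/CHAPS lysis at 65 °C, 2-DG quantified by G6PDH/diaphorase-coupled resazurin-to-resorufin fluorescence (ex/em 535/590 nm). Blank-subtracted, normalised to DMSO.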

In a further experiment the test system is HCT116 cells. Nature of the experiment: 2-Deoxy-Glucose (2-DG) uptake assay in HCT116 cells. As to conditions: Homo sapiens, HCT-116, 0.5 h, 1 mM 2-DG, 30 min, read-out: IC50 determined for the inhibition of 2-DG uptake in HCT116 cells. On the procedure: The 2-DG uptake assay was carried out as described by Yamamoto N. et al. with slight modifications ([…]). Briefly, 40,000 HCT116 or CHO cells were seeded in black, clear bottom 96-well plates and allowed to attach overnight. Cells were incubated with compounds or DMSO and 1 mM 2-DG in glucose-free KRB buffer (20 mM HEPES, 5 mM KH2PO4, 1 mM MgSO4, 1 mM CaCl2), 136 mM NaCl, 0.1% BSA, pH 7.4) for 30 min. In the case of GLUT-4 transfected cells, Insulin (100 μg/mL) was added to the buffer. Cells were then washed and lysed in 0.06 M HCl and 1% CHAPS for 15 min at 65° C. while shaking. The amount of 2-DG in the lysate was determined by means of enzyme-coupled assay. For this 6.4 U/mL glucose-6-phosphate dehydrogenase, 0.2 U/mL diaphorase, 0.1 mM NADP^+ and 0.025 mg/mL resazurin were added to the lysates. Resorufin fluorescence was determined as a measure of 2-DG uptake at ex/em 535/590 nm with a Tecan Infinite M200 plate reader (Tecan). Blank values were subtracted from all readings and values were normalized to the DMSO control.

On to `Cc1ccc(CCNC(=O)c2cccc(N3C(=O)NC4CC3(C)Oc3c(OCc5ccccc5C)cccc34)c2)cc1` (centres unmarked) [Compound A02, 3-(2-Methyl-10-((2-methylbenzyl)oxy)-4-oxo-5,6-dihydro-2H-2,6-methanobenzo[g][1,3,5]oxadiazocin-3(4H)-yl)-N-(4-methylphenethyl)benzamide], for which the IC50 on GLUT3 is 1000 to 4000 nM; on GLUT1 it was 1000 to 4000 nM; at GLUT4 it was more than 25 µM; in the experiment on HCT116 cells, not above 5 µM.
For `Cc1ccc(CCNC(=O)c2cccc(N3C(=O)NC4CC3(C)Oc3c(OCc5ccc([N+](=O)[O-])cc5)cccc34)c2)cc1` (centres unmarked) [Compound A03, 3-(2-Methyl-10-((4-nitrobenzyl)oxy)-4-oxo-5,6-dihydro-2H-2,6-methanobenzo[g][1,3,5]oxadiazocin-3(4H)-yl)-N-(4-methylphenethyl)benzamide], the IC50 at GLUT3 is 300 to 1000 nM; at GLUT1, 300 to 1000 nM; at GLUT4, 4 to 10 µM; in the experiment with HCT116 cells it was not above 5 µM.
